Data as given in patent US20130115256A1, “METHODS FOR TREATING OR PREVENTING VASCULAR GRAFT FAILURE” (priority 2010, published 2013).

Columns and labels:
PRAK = target: T1, PRAK (Homo sapiens, UniProt Q8IW41); experiment: PRAK radiometric kinase assay; assay type: biochemical; details: MMI-0100 100 μM; remaining kinase activity
T1 construct: purchased Millipore (KinaseProfiler service)
T1 sequence (Q8IW41 1-473): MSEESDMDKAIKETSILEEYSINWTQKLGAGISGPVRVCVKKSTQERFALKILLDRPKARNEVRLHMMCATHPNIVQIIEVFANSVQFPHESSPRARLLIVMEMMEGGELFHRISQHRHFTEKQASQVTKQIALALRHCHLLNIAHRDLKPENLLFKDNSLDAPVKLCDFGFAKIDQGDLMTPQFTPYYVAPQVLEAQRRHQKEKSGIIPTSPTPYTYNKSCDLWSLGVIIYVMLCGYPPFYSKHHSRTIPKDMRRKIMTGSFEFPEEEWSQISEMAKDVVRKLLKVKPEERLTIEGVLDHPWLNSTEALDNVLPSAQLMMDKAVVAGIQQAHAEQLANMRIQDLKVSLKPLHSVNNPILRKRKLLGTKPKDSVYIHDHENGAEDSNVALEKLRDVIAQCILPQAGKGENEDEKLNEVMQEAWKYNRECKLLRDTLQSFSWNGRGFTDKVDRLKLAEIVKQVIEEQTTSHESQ
Description: (§1) A commercial radiometric assay service was used to test the specificity and potency of MMI-0100 ([…]; SEQ ID NO: 1) by measuring its half maximal inhibitory concentrations (IC50). This quantitative assay measures how much MK2 inhibitor (MMI-0100; […] (SEQ ID NO: 1)) is needed to inhibit 50% of a given biological process or component of a process (i.e., an enzyme, cell, or cell receptor). Specifically, in these assays, a positively charged substrate is phosphorylated with a radiolabeled phosphate group from an ATP if the kinase is not inhibited by an inhibitor peptide. The positively charged substrate then is attracted to a negatively charged filter membrane, quantified with a scintillation counter, and compared to a 100% activity control. ATP concentrations within 15 μM of the apparent Km for ATP were chosen since an ATP concentration near the Km may allow for the kinases to have the same relative amount of phosphorylation activity. The individual conditions for each radiometric assay are as follows. […]
(§2) IC50 values for inhibitor peptides were determined using Millipore's IC50 Profiler Express service. […]

THP-1 cells = experiment: TNF-α and IL-1β production in PMA/LPS-treated THP-1 cells (ELISA); assay type: cell-based, human
Method: The ability of MMI-0100 ([…]; SEQ ID NO: 1) to inhibit the production of inflammatory cytokines (TNF-α and IL-1β) in vitro was examined using THP-1 cells. Briefly, THP-1 cells were activated with PMA for 24 hours, and treated subsequently with 10 μg of LPS. The amount of inflammatory cytokines (TNF-α and IL-1β, pg/ml) produced in the medium in the presence or absence of increasing concentrations (1 μM, 3 μM, 10 μM, and 30 μM) of MMI-0100 ([…]; SEQ ID NO: 1) was determined by cytokine specific enzyme-linked immunosorbent assay (ELISA). Analysis of inflammatory cytokines (TNF-α and IL-1β) was performed with cytokine-specific ELISA kit (PeproTech, Inc., Rocky Hill, N.J.). The cytokine-specific ELISA employs highly-purified anti-cytokine antibodies (capture antibodies) that are noncovalently adsorbed (“coated”) onto plastic microwell plates. After washings, the immobilized antibodies capture specifically soluble cytokine proteins present in samples applied to the plate. After washing away unbound material, the captured cytokine proteins are detected by biotin-conjugated anti-cytokine antibodies (detection antibodies) followed by an enzyme-labeled avidin or streptavidin reporter. Following addition of a chromogenic (color-developing) substrate-containing solution, the level of colored product generated by the bound, enzyme-linked, detection reagents can be measured spectrophotometrically using an ELISA-plate reader at an appropriate optical density.
In order to prepare plates for ELISA, capture antibodies (anti-TNF-α or anti-IL-1β antibodies) were diluted with PBS to a concentration of 1 μg/ml. 100 μl of each diluted antibody was added immediately to each well of the ELISA plate. […]
The standard was diluted from 2 ng/ml to zero in diluent, and 100 μl of the standard or sample was added immediately to each well in triplicate and incubated at room temperature for at least 2 hours. […] The level of colored product generated by the bound, enzyme-linked, detection reagents was measured spectrophotometrically using an ELISA-plate reader at an appropriate optical density.

JNK = JNK radiometric kinase assay; assay type: biochemical; details: MMI-0100 100 μM; remaining kinase activity
Description: as §1, with “activity.” for “activity. The individual conditions for each radiometric assay are as follows.”
For the JNK (c-Jun N-terminal Kinase) radiometric assay, 5-10 mU of JNK was incubated with 50 mM Tris pH 7.5, 0.1 mM EGTA, 0.1% b-mercaptoethanol, 3 μM ATF2 (a substrate for JNK), 10 mM MgAcetate, and 10 μM of [y-^33P-ATP] in the final reaction volume of 25 μl. […] The washed P30 filtermat was dried and its radioactivity was measured by scintillation counter.
as §2

[1] = Toxicity observation (test not specified)

YARAAARQARAKALARQLGVAA [MMI-0100]
Percent Activity, PRAK (PRAK): 100%
IL-1β level in the medium (THP-1 cells; 30 μM MMI-0100, PMA then LPS (stimulated control about 450 pg/ml)): about 100 pg/ml
TNF-α level in the medium (THP-1 cells; 30 μM MMI-0100, PMA then LPS (stimulated control about 1000 pg/ml)): about 300 pg/ml
production of pro-inflammatory cytokines (TNF-α and IL-1β) (THP-1 cells; 1, 3, 10, 30 μM MMI-0100): dose-dependent manner
Percent Activity, JNK (JNK): 92%
evidence of toxicity, tissue erosion, or necrosis [1]: did not show any evidence
